Each block holds one compound with its values, some of them ahead of it.
What was measured:
[1] = system: HCl-EtOH-induced gastric lesions; parameters: method as in PMID 21996716; details: mice, orally, single dose of 5 mg/kg; cited from earlier work
[2] = Cytotoxicity, neutral red uptake assay, MRC-5; assay type: cell-based; details: human, MRC-5 lung fibroblasts, confluent monolayer, confluent MRC-5, 24 h, read-out: IC50 ± SD, cytotoxicity MRC-5
Description: (§1) Human lung fibroblasts MRC-5 (ATCC CCL-171) were grown in minimum essential Eagle medium (MEM) with Earles’s salts and 2 mM L-glutamine (Sigma-Aldrich Co.). Human epithelial gastric cells AGS (ATCC CRL-1739) were grown in Ham F-12 medium containing 1 mM L-glutamine. Both media were supplemented with 1.5 g/L sodium bicarbonate (Sigma-Aldrich Co.), 10% heat-inactivated fetal bovine serum (FBS), 100 IU/mL penicillin and 100 µg/mL streptomycin.Both cell lines were grown as monolayers in a humidified incubator with 5% CO2 in air at 37 °C. Culture media, antibiotics and FBS were obtained from Invitrogen Corp.
(§2) Cytotoxicity values were required as a reference to determine the working concentrations in the subsequent experiments. Briefly, confluent cultures of MRC-5 and AGS cells were treated during 24 h with medium containing the compounds at concentrations ranging from 0 up to 1,000 µM. The products were first dissolved in DMSO (1% final concentration) and then in the corresponding culture medium supplemented with 2% FBS. Untreated cells were used as controls. Cell viability was determined at the end of the incubation by means of the neutral red uptake (NRU) assay. Lansoprazole (Sigma-Aldrich Co., min. 98% by TLC) was used as reference compound.

[3] = system: AGS cells; assay: Cellular reduced glutathione (GSH) content of AGS cells; assay type: cell-based, human; details: 4 h; for GSH: post-confluent AGS, control 13.6 ± 0.7
Description: Untreated cells were used as controls. […] After incubation, the GSH content was determined using a colorimetric kit (BioAssays Systems, Hayward, CA, USA). Results are expressed as nanomol of soluble reduced sulfhydryls/10^6 cells.

[4] = system: AGS cells; assay: Prostaglandin E2 (PGE2) content of AGS cells; assay type: cell-based, human; details: 1 h; for PGE2: post-confluent AGS, control 52 ± 5
Description: One day after confluence, AGS cells were treated for 1 h with the compounds at 1/2 and 1/4 of the respective IC50 values. A control with medium only was included. Indomethacin (100 μM) was used as standard inhibitor of prostaglandin synthesis (Sigma-Aldrich Co., min. 99% by TLC). After incubation, PGE2 content was determined by means of a specific enzyme immunoassay kit (R & D Systems KGE004B, Minneapolis, MN, USA) and values were calculated according to the manufacturer instructions. Results are expressed as pg/well.

[5] = system: AGS cells; assay: Sodium taurocholate (NaT)-induced damage to AGS cells; assay type: cell-based, human; details: 60 min pre-treatment, then 10 mM NaT 30 min
Description: The effect of sodium taurocholate (NaT) on cell viability was determined according to [15]. […] Then, 10 mM NaT was added to all wells for 30 min. Untreated cells were used as controls. […] After incubation, the NRU assay was carried out.

[6] = Cytotoxicity, neutral red uptake assay, AGS; assay type: cell-based; details: human, AGS gastric epithelial cells, confluent monolayer, read-out: IC50 ± SD, cytotoxicity AGS
Description: as §1, §2

[7] = system: human erythrocyte membranes; assay: Inhibition of lipoperoxidation in erythrocyte membranes; assay type: biochemical; details: at 100 µg/mL
Description: The inhibition of lipid peroxidation was determined using human erythrocyte membranes. The compounds were tested at 100 µg/mL.

[8] = system: MRC-5 fibroblasts; assay: MRC-5 fibroblast proliferation assay; assay type: cell-based, human; details: MRC-5, 4 days, concentrations 1/64 to 1/2 of IC50
Description: Untreated cells were used as controls. Cell viability was determined at the end of the incubation by means of the NRU assay.

[9] = system: human erythrocyte membranes; assay: Inhibition of lipoperoxidation in erythrocyte membranes; assay type: biochemical

Structure (SMILES): CC1=C(CC[C@@H](C)CC(=O)OC2=C(CCC(C)C)C(=O)c3ccccc3C2=O)[C@@]2(C)CCC[C@](C)(C(=O)O)C2CC1 (some centres unmarked) [Compound 21, Dihydroprenyl lapachoyl Δ8(9) junicedrate]
- gastroprotective effect in vivo [1]: significant activity
- IC50 at 24 h [2]: 601 ± 26 µM
- activation at 70 µM ([3]; Homo sapiens, AGS, 70 µM, read-out: increase of GSH content compared to untreated controls): 33%
- GSH ([3]; 35 µM): 13.3 ± 0.7 nmol/10^6 cells
- GSH ([3]; 70 µM): * 18.1 ± 1.1 nmol/10^6 cells
- fold induction at 85 µM ([4]; Homo sapiens, AGS, 85 µM, read-out: increase in PGE2 content): 3.1
- PGE2 ([4]; 85 µM): 162 ± 18 pg/mL
- reduction in cell viability, NaT-induced damage ([5]; 35 µM): 25%
- reduction in cell viability, NaT-induced damage ([5]; 70 µM): 27%
- reduction in cell viability, NaT-induced damage ([5]; 139 µM): 30%
- IC50 at 24 h [6]: 278 ± 14 µM

Structure (SMILES): CC(C)=CCC1=C(OC(=O)C[C@H](C)CCC2=C(C)CCC3[C@@](C)(C(=O)O)CCC[C@]23C)C(=O)c2ccccc2C1=O (some centres unmarked) [Compound 19, Lapachoyl Δ8(9) junicedrate]
- IC50 at 24 h [2]: 129 ± 9 µM
- GSH ([3]; 19 µM): 13.1 ± 0.4 nmol/10^6 cells
- GSH ([3]; 37 µM): 13.5 ± 0.5 nmol/10^6 cells
- reduction in cell viability, NaT-induced damage ([5]; 19 µM): 15%
- reduction in cell viability, NaT-induced damage ([5]; 37 µM): 27%
- reduction in cell viability, NaT-induced damage ([5]; 74 µM): 40%
- % Inhibition of the lipoperoxidation [7]: 49%
- IC50 at 24 h [6]: 148 ± 9 µM

Structure (SMILES): COC(=O)[C@@]1(C)CCC[C@@]2(C)C1CC[C@H](C)[C@@H]2CC[C@@H](C)CC(=O)OC1=C(CCC(C)C)C(=O)c2ccccc2C1=O (stereo partly drawn) [Compound 16, Dihydroprenyl lapachol 17β-dihydrojunicedrate methyl ester]
- IC50 at 24 h [2]: 596 ± 44 µM
- GSH ([3]; 80 µM): 14.9 ± 0.7 nmol/10^6 cells
- GSH ([3]; 160 µM): 14.1 ± 0.6 nmol/10^6 cells
- reduction in cell viability, NaT-induced damage ([5]; 81 µM): 44%
- % Inhibition of the lipoperoxidation [7]: 46%
- IC50 at 24 h [6]: 643 ± 39 µM

- IC50, inhibition of the lipoperoxidation [9]: IC50 59.5 ± 4.3 µg/mL
Structure (SMILES): CC1=C(CC[C@@H](C)CC(=O)OC2=C(CCC(C)C)C(=O)C3=C(CCCC3)C2=O)[C@@]2(C)CCC[C@](C)(C(=O)O)C2CC1 (some centres unmarked) [Compound 23, Dihydroprenyl-5,6,7,8-tetrahydrolapachoyl Δ8(9) junicedrate]
- IC50 at 24 h [2]: 20 ± 2 µM
- Stimulation of fibroblast proliferation [8]: inactive
- activation at 7.3 µM ([3]; Homo sapiens, AGS, 7.3 µM, read-out: increase of GSH content compared to untreated controls): 26%
- GSH ([3]; 3.6 µM): 12.6 ± 0.8 nmol/10^6 cells
- GSH ([3]; 7.3 µM): * 17.1 ± 1.3 nmol/10^6 cells
- reduction in cell viability, NaT-induced damage ([5]; 7.5 µM): 32%
- reduction in cell viability, NaT-induced damage ([5]; 15 µM): 39%
- IC50 at 24 h [6]: 29 ± 2 µM

- IC50, inhibition of the lipoperoxidation [9]: IC50 61.1 ± 5.9 µg/mL
Structure (SMILES): CC(C)=CCC1=C(OC(=O)C[C@H](C)CC[C@H]2[C@@H](C)CCC3[C@]2(C)CCC[C@]3(C)C(=O)O)C(=O)c2ccccc2C1=O (stereo partly drawn) [Compound 13, Lapachoyl 17β-dihydrojunicedrate]
- IC50 at 24 h [2]: 355 ± 21 µM
- Percentual proliferative increase compared to untreated cells [8]: 7.3%
- GSH ([3]; 44 µM): 11.9 ± 0.4 nmol/10^6 cells
- GSH ([3]; 88 µM): 11.4 ± 0.6 nmol/10^6 cells
- reduction in cell viability, NaT-induced damage ([5]; 45 µM): 38%
- reduction in cell viability, NaT-induced damage ([5]; 89 µM): 38%
- IC50 at 24 h [6]: 351 ± 29 µM

Structure (SMILES): COC(=O)[C@@]1(C)CCC[C@]2(C)C(CC[C@@H](C)CC(=O)OC3=C(CCC(C)C)C(=O)C4=C(CCCC4)C3=O)=C(C)CCC12 (some centres unmarked) [Compound 24, Dihydroprenyl-5,6,7,8-tetrahydrolapachoyl Δ8(9) junicedrate methyl ester]
- IC50 at 24 h [2]: > 1000 µM
- Stimulation of fibroblast proliferation [8]: inactive
- GSH ([3]; 125 µM): * 18.7 ± 1.0 nmol/10^6 cells
- GSH ([3]; 250 µM): * 18.0 ± 0.9 nmol/10^6 cells
- fold induction at 250 µM ([4]; Homo sapiens, AGS, 250 µM, read-out: increase in PGE2 content): 2.4
- PGE2 ([4]; 250 µM): 123 ± 12 pg/mL
- % Inhibition of the lipoperoxidation [7]: 27%
- IC50 at 24 h [6]: > 1000 µM

Structure (SMILES): C=C1CCC2[C@](C)(CCC[C@]2(C)C(=O)O)[C@H]1CC[C@@H](C)CC(=O)OC1=C(CCC(C)C)C(=O)C2=C(CCCC2)C1=O (some centres unmarked) [Compound 11, Dihydroprenyl-5,6,7,8-tetrahydrolapachoyl junicedrate]
- IC50 at 24 h [2]: 42 ± 2 µM
- Percentual proliferative increase compared to untreated cells [8]: 3.6%
- GSH ([3]; 8 µM): 13.1 ± 0.6 nmol/10^6 cells
- GSH ([3]; 16 µM): 13.2 ± 0.5 nmol/10^6 cells
- % Inhibition of the lipoperoxidation [7]: 44%
- IC50 at 24 h [6]: 63 ± 4 µM

- IC50, inhibition of the lipoperoxidation [9]: IC50 43.8 ± 2.8 µg/mL
Structure (SMILES): CC1=C(CC[C@@H](C)CC(=O)O)[C@@]2(C)CCC[C@](C)(C(=O)O)C2CC1 (some centres unmarked) [Compound 5, Δ8(9) Junicedric acid]
- IC50 at 24 h [2]: 834 ± 51 µM
- Percentual proliferative increase compared to untreated cells [8]: 3.6%
- Effect in the GSH assay ([3]; AGS, 1/4 and 1/8 of IC50): devoid of activity
- GSH ([3]; 83 µM): 13.6 ± 0.5 nmol/10^6 cells
- GSH ([3]; 166 µM): 14.1 ± 0.6 nmol/10^6 cells
- reduction in cell viability, NaT-induced damage ([5]; 83 µM): 19%
- reduction in cell viability, NaT-induced damage ([5]; 333 µM): 35%
- IC50 at 24 h [6]: 666 ± 35 µM

Structure (SMILES): COC(=O)[C@@]1(C)CCC[C@@]2(C)C1CC[C@H](C)[C@@H]2CC[C@@H](C)CC(=O)OC1=C(CC=C(C)C)C(=O)C2=C(CCCC2)C1=O (stereo partly drawn) [Compound 18, Dihydroprenyl-5,6,7,8-tetrahydrolapachoyl 17β-dihydrojunicedrate methyl ester]
- IC50 at 24 h [2]: 369 ± 29 µM
- Percentual proliferative increase compared to untreated cells [8]: 3.6%
- activation at 111 µM ([3]; Homo sapiens, AGS, 111 µM, read-out: increase of GSH content compared to untreated controls): 26%
- activation at 221 µM ([3]; Homo sapiens, AGS, 221 µM, read-out: increase of GSH content compared to untreated controls): 26%
- GSH ([3]; 111 µM): * 17.1 ± 1.1 nmol/10^6 cells
- GSH ([3]; 221 µM): * 17.2 ± 1.0 nmol/10^6 cells
- fold induction at 111 µM ([4]; Homo sapiens, AGS, 111 µM, read-out: increase in PGE2 content): 2.4
- fold induction at 221 µM ([4]; Homo sapiens, AGS, 221 µM, read-out: increase in PGE2 content): 3
- PGE2 ([4]; 111 µM): 123 ± 9 pg/mL
- PGE2 ([4]; 221 µM): 156 ± 13 pg/mL
- % Inhibition of the lipoperoxidation [7]: 28%
- IC50 at 24 h [6]: 884 ± 62 µM

Reference: publication PMC6270338, “Diterpenylquinone Hybrids: Synthesis and Assessment of Gastroprotective Mechanisms of Action in Human Cells” (Molecules, 2013)
